Laboratory results reported in article PMC11328113, “Dissecting the functional behavior of the differentially phosphorylated prolyl isomerase, Pin1” (Protein Science : A Publication of the Protein Society, 2024).
Where a SMILES comes first, the peptide text is derived from it. Where no end group is shown, it is not given here. [ ]: non-standard residue; d: D form. The star is where a group is joined. FITC = O=C1OC2(c3ccc(O)cc3Oc3cc(O)ccc32)c2ccc(NC(=S)*)cc21; pS = N[C@@H](COP(=O)(O)O)C(=O)O; Ahx = NCCCCCC(=O)O

Tests used:
Pin1 [1] = biological target: T1, Pin1 (Homo sapiens, UniProt Q13526); assay: Fluorescence polarization, FITC-Pintide binding to Pin1; details: fluorescently labelled Pintide 10 nM; FP, room temperature, 5 mM HEPES pH 7.4, 30 mM NaCl, 0.1% Tween20, 1% DMSO; triplicates; read-out: apparent Kd (Pin1 titration to fluorescently labelled Pintide)
T1 construct: His6 (TEV-cleavable) (N, cleaved yes); host or cells: E. coli BL21 (DE3)
Description: FP experiments were conducted using a fluorescein (FITC)‐labeled “Pintide” [5‐FITC‐(Ahx)‐WFY(pS)PFLE‐CONH2] purchased from China Peptides. FP data were collected at room temperature in buffer containing 5 mM HEPES pH 7.4, 30 mM NaCl, 0.1% v/v Tween20, and 1% v/v DMSO using Corning black, round‐bottom, low‐binding 384‐well plates. For all experiments, a fixed concentration of 10 nM fluorescently labeled Pintide and 40 μM of Pin1 protein was used. All plates were incubated for 10 min and shaken for 10 s before polarization was measured using a CLARIOstar Plus microplate reader with an excitation wavelength of 482/16 nm and an emission wavelength of 530/40 nm; dichroic mirror 504; flashes: 200. All data were analyzed using GraphPad Prism 7, and sigmoidal curves were fitted using the following Equation: Y=Bottom+Top−Bottom/1+10^Logt1/2−X*HillSlope. where Y = mP value, X = time, and Top and bottom = plateaus in mP.
Figure S1. (a) Fluorescence polarisation data for Pin1 titration to fluorescently labelled Pintide (10 nM). The apparent Kd was 0.7 µM. […] (b) Fluorescence polarisation control data showing polarisation, mP values, for the fluorescently labelled Pintide alone (Only Pintide, black), PKA in the presence of Pintide without Pin1 at 1 min and 24 h time points, and Pin1 in the presence of Pintide without PKA at 1 min and 24 h time points. […]

Pin1 [2] = biological target: T1, Pin1; assay: Native MS of Pintide bound to differentially phosphorylated Pin1; type: binding; details: for % Pintide bound: 2.5 μM : 25 μM Pin1 : Pintide, 100 mM ammonium acetate, mean ± SD, triplicate
Description: (§1) To phosphorylate Pin1 for the native MS analysis, Pin1 (10 μM) was incubated at 30°C with 2 mM ATP, 10 mM MgCl2 (BDH Laboratory supplies), and 10,000 units PKA in 100 mM ammonium acetate pH 6.8 for 1, 3, 8, and 24 h. The concentration of PKA and Pin1 was optimized in order to detect sequential phosphorylation within the time course. At each time‐point, aliquots were taken, the reaction quenched by addition of EDTA (final concentration 20 mM), and the sample buffer exchanged using 3 kDa Amicon Ultra 0.5 mL centrifugal concentrators into 100 mM ammonium acetate pH 6.8 prior to MS analysis. Phosphorylation assays at each time‐point were carried out in triplicates, and the error was reported as the standard deviation.
Unlabeled Pintide [AcHN‐WFY(pS)PFLE‐CONH2] was purchased from China Peptides and dissolved in 100 mM ammonium acetate pH 8 to a final concentration of 1 mg/mL and stored at −80°C until use. To determine the affinity of […] for differentially phosphorylated Pin1, Pintide was added to each Pin1 phosphorylation time‐point at a 2.5 μM: 25 μM Pin1 to Pintide ratio and the sample was directly infused into the mass spectrometer. Experiments were carried out in triplicates, and the error was reported as the standard deviation.
(§2) All native MS was performed on a QExactive HF mass spectrometer (Thermo Fisher Scientific) equipped with a nanoelectrospray ionization source that used gold‐coated borosilicate glass capillaries, pulled in‐house. Positive ionization mode was used throughout, with the capillary voltage set to 1.2 kV. The source temperature was set at 250°C, in source dissociation at 0, S‐lens RF at 100. The Pin1 concentration was set to 2.5 μM and a mass range of 1500–4000 m/z was acquired. Mass spectra were acquired using a maximum ion injection time of 100 ms. The automatic gain control was set to 1 x 10^6 and the ions detected in the orbitrap with resolution set to 15,000. All data were analyzed using XCalibur (version 4.2). To quantify the abundance of unphosphorylated, phosphorylated Pin1 and Pin1‐Pintide complexes, the relative abundance of the peaks corresponding to the specific 9+, 8+, and 7+ Pin1 species of interest was summed and expressed as a percentage of all Pin1‐containing peaks detected.

Pin1 [3] = biological target: T1, Pin1; assay: Chymotrypsin-coupled Pin1 PPIase assay (suc-AEPF-pNA); type: biochemical; details: in the absence of PKA, 4°C, pH 7.8
Description: To perform the FP and enzymatic activity assays, Pin1 was phosphorylated by incubation of 40 μM Pin1 with 10,000 units of cAMP‐dependent protein kinase (PKA) (New England BioLabs) in kinase buffer (50 mM Tris‐HCl, 10 mM MgCl2, 1 mM DTT, and pH 7.5) supplemented with 2 mM adenosine triphosphate (ATP) (New England BioLabs) at 37°C. At 1 min, 1 h, 3 h, 8 h, 12 h, 18 h, 24 h, and 32 h, aliquots were taken, and PKA activity was stopped by addition of 20 mM EDTA, and the samples were kept at −80°C prior to analysis.
Pin1 (phosphorylated or non‐phosphorylated, 80 nM), in buffer containing 35 mM HEPES, pH 7.8, was incubated with 30 mg/mL ice‐cold chymotrypsin (diluted in 1 mM HCl) (Sigma‐Aldrich) and 2.5 mM of PPIase substrate (Suc‐AEPF‐pNA in 460 mM LiCl in trifluoroethanol) (#SAP‐3947‐PI, Vivitide) in a 1 mL cuvette. pNA release was measured at 4°C for 1 min on a Cary 300 UV–visible spectrophotometer using an absorption wavelength at 390 nm.
The data were collected in triplicate and analyzed using GraphPad Prism 7. The data were reported as the mean ± standard error of the mean.

[4] = system: cAMP-dependent protein kinase (PKA); assay: Native MS of Pin1 phosphorylation by PKA; type: biochemical; details: 30°C, pH 6.8, mean ± SD, triplicate
Description: as §1, §2

[5] = system: cAMP-dependent protein kinase (PKA); assay: LC-MS/MS phosphosite occupancy of Pin1 upon incubation with PKA (Lys-C digestion); type: biochemical; details: triplicate
Description: as §1
Phosphorylated Pin1 was digested with either trypsin (Promega) or the endoproteinase Lys‐C (Promega) at a 1:50 ratio of enzyme: protein. To localize the phosphorylation sites, trypsin digestion was performed. To quantify the phosphosite occupancy over the phosphorylation time‐course, differentially phosphorylated Pin1 was digested with Lys‐C. For both enzymatic reactions, Pin1 was digested in 100 mM ammonium bicarbonate pH 8.0 for 3 h at 37°C, and the reaction was quenched by the addition of formic acid (2% v/v final concentration). All peptides were separated using an UltiMate 3000 HPLC series, which was either coupled to a QExactive HF or Orbitrap Eclipse mass spectrometer (Thermo Fisher Scientific). […] To quantify the extent of phosphorylation on Pin1, MS/MS was performed on the QExactive HF mass spectrometer. […]
To quantify the abundance of phosphorylated peptides, the retention time of the eluted peptides was identified using Proteomic Discoverer v.2.5. Spectra were averaged across the peptides chromatographic peak, and the percentage of phosphorylated peptide was calculated as a percentage of the total abundance of unphosphorylated and phosphorylated peptide. Full details of the peptides used for quantitation are detailed in the Supporting Information (Table S4).

[6] = system: cAMP-dependent protein kinase (PKA); assay: LC-MS/MS (EThcD) of additional Pin1 phosphosites after PKA incubation (trypsin digestion); type: biochemical; details: 24 h with PKA, not consistently detected across timepoints
Description: Phosphorylated Pin1 was digested with either trypsin (Promega) or the endoproteinase Lys‐C (Promega) at a 1:50 ratio of enzyme: protein. To localize the phosphorylation sites, trypsin digestion was performed. To quantify the phosphosite occupancy over the phosphorylation time‐course, differentially phosphorylated Pin1 was digested with Lys‐C. For both enzymatic reactions, Pin1 was digested in 100 mM ammonium bicarbonate pH 8.0 for 3 h at 37°C, and the reaction was quenched by the addition of formic acid (2% v/v final concentration). All peptides were separated using an UltiMate 3000 HPLC series, which was either coupled to a QExactive HF or Orbitrap Eclipse mass spectrometer (Thermo Fisher Scientific). Peptides were desalted on a PepMap100 C18 nanoViper trap column (75 μM x 2 cm, […] particle size) (Thermo Fisher Scientific) and separated with a PepMap100 C18 nanoViper analytical column (75 μM x 15 cm, […] particle size) (Thermo Fisher Scientific) using mobile phase A (H2O and 0.1% formic acid) and mobile phase B (100% acetonitrile and 0.1% formic acid) and eluted using a gradient from […] to 44% B over 30 min. The column flow rate was set to 350 nL/min with the column temperature set at 40°C. To quantify the extent of phosphorylation on Pin1, MS/MS was performed on the QExactive HF mass spectrometer. […]
To prevent phospho‐loss resulting in misassignment of the phosphosite location (Boersema et al., [2009]), electron transfer dissociation with supplemental HCD (EThcD) was performed on the trypsin‐digested peptides to localize the phosphosites. […] ETD was performed using an automatically determined reagent time set based on precursor charge state. […] Fragment ions were detected in the Orbitrap using a resolution setting of 30,000. […]
All RAW files were processed and analyzed using Proteome Discoverer version 2.5. […] Additional phosphosites, Ser58, Ser65, and Ser67 (Table S4) were detected after 24 h of incubation with PKA, however, these were not consistently detected across all timepoints and, therefore, were excluded from phosphosite quantitation. […]

[7] = biological target: Pin1 phosphorylated at Ser71 (singly phosphorylated Pin1) (UniProt Q13526); assay: fluorescence polarisation; time course: Pin1 (40 uM) incubated with PKA and ATP at 37 C for 1 min to 32 h, stopped with 20 mM EDTA, then 10 nM FITC-Pintide; room temperature, 5 mM HEPES pH 7.4, 30 mM NaCl, 0.1% Tween20, 1% DMSO; control without PKA
Pin1 phosphorylated at Ser71 (singly phosphorylated Pin1), sequence (Q13526 whole entry): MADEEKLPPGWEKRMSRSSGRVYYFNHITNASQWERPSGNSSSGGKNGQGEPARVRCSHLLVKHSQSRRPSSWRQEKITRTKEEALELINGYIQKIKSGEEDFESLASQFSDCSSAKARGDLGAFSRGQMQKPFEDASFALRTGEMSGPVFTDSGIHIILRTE

T1 sequence (Q13526 whole entry): as above

## CC(C)C[C@H](NC(=O)[C@H](Cc1ccccc1)NC(=O)[C@@H]1CCCN1C(=O)[C@H](COP(=O)(O)O)NC(=O)[C@H](Cc1ccc(O)cc1)NC(=O)[C@H](Cc1ccccc1)NC(=O)[C@H](Cc1c[nH]c2ccccc12)NC(=O)CCCCCNC(=S)Nc1ccc2c(c1)C(=O)OC21c2ccc(O)cc2Oc2cc(O)ccc21)C(=O)N[C@@H](CCC(=O)O)C(N)=O [FITC‐Pintide, 5‐FITC‐(Ahx)‐WFY(pS)PFLE‐CONH2] ({FITC-Ahx}-WFY[pS]PFLE-NH2)
Pin1 [1]
  Kd: 700 nM

## AcHN‐WFY(pS)PFLE‐CONH2 [Pintide]
Pin1 [2]; 0 phosphosites on Pin1
  % Pintide bound: 39 ± 5%
Pin1 [2]; 1 phosphosite on Pin1, * p <0.05 (ANOVA, Tukey HSD)
  % Pintide bound: 26 ± 6* %
Pin1 [2]; 2 phosphosites on Pin1, ** p <0.01 (ANOVA, Tukey HSD)
  % Pintide bound: 4 ± 1** %
Pin1 [2]; Pin1 phosphorylated at Ser71, versus unphosphorylated, native MS
  Pin1 binding to Pintide: small, yet significant, difference

## Pin1: peptidyl‐prolyl cis‐trans isomerase comprising N-terminal WW domain and C-terminal PPIase domain
Pin1 [3]
  absorption at 390 nm upon addition of Pin1 to the substrate (catalytic activity): increased
[4]; 3 h incubation with PKA
  relative abundance of doubly phosphorylated Pin1: ~ 65 ± 23%
[4]; 8 h incubation with PKA
  relative abundance of doubly phosphorylated Pin1: 85% ± 11
[4]; 24 h incubation with PKA
  relative abundance of Pin1 with two phosphorylation sites: 95% ± 0.01
[5]; 1 h incubation with PKA
  phosphorylation occupancy of Ser16: 4%
  phosphorylation occupancy of Ser71: ~ 90%
[5]; 24 h incubation with PKA
  phosphorylation occupancy of Ser16: ~ 80%
[6]
  Phosphorylation Stoichiometry (24h), Ser58: 0.19
  Phosphorylation Stoichiometry (24h), Ser65: 0.05
  Phosphorylation Stoichiometry (24h), Ser67: 0.05

## WFY[pS]PFLE-NH2 (not fully specified (N-terminus); printed as 5‐FITC‐(Ahx)‐WFY(pS)PFLE‐CONH_2_) [FITC-Pintide [5-FITC-(Ahx)-WFY(pS)PFLE-CONH2]]
[7]
  % of binding inhibited after 1 h with PKA: 16%
